Experimental data as given in patent US6906205B2, “Spiro and dispiro 1,2,4-trioxolane antimalarials” (Medicines for Malaria Venture MMV, priority 2002, dated 2005).
In brackets after ≈: the same amount, converted by molar mass.

system: P. falciparum K1 strain (Thailand resistant to chloroquine); experiment: semiautomated microdilution assay, [3H]-hypoxanthine incorporation, K1 strain; assay type: cell-based, Plasmodium falciparum; details: K1 strain, 72 h incubation
Procedure: (§1) Various OZ compounds were tested by the semiautomated microdilution assay against intraerythrocytic forms of Plasmodium falciparum derived from asynchronous stock cultures.
(§2) Fifty percent inhibitory concentration (IC50) were estimated by Logit regression analysis.

Compound	IC50 (ng/ml) K1
O=S(=O)(c1ccc(F)cc1)N1CCC2(CC1)OOC1(O2)C2CC3CC(C2)CC1C3 (centres unmarked) [OZ86]	0.80 ng/mL (≈ 1.89 nM)
O=C(OCCn1ccnc1)C1CCC2(CC1)OOC1(O2)C2CC3CC(C2)CC1C3 (centres unmarked) [OZ182]	4.5 ng/mL (≈ 11.2 nM)
FC1(c2ccccc2)CCC2(CC1)OOC1(O2)C2CC3CC(C2)CC1C3 (centres unmarked) [OZ274]	5.1 ng/mL (≈ 14.2 nM)
O=C(C[C@H]1CC[C@]2(CC1)OO[C@]1(O2)C2CC3CC(C2)CC1C3)NCCN1CCOCC1 [OZ313]	0.55 ng/mL (≈ 1.27 nM)
CC(=O)OC[C@H]1CC[C@]2(CC1)OOC1(O2)C2CC3CC(C2)CC1C3 (some centres unmarked) [OZ118]	1.0 ng/mL (≈ 2.97 nM)
CS(=O)(=O)NC[C@H]1CC[C@]2(CC1)OOC1(O2)C2CC3CC(C2)CC1C3 (some centres unmarked) [OZ257]	42 ng/mL (≈ 113 nM)

system: P. falciparum NF54 strain (sensitive to standard antimalarials); experiment: semiautomated microdilution assay, [3H]-hypoxanthine incorporation, NF54 strain; assay type: cell-based, Plasmodium falciparum; details: NF54 strain, 72 h incubation
Procedure: as §1, §2

Compound	IC50 (ng/ml) NF54
O=S(=O)(c1ccc(F)cc1)N1CCC2(CC1)OOC1(O2)C2CC3CC(C2)CC1C3 (centres unmarked) [OZ86]	2.0 ng/mL (≈ 4.72 nM)
O=C(OCCn1ccnc1)C1CCC2(CC1)OOC1(O2)C2CC3CC(C2)CC1C3 (centres unmarked) [OZ182]	5.5 ng/mL (≈ 13.7 nM)
FC1(c2ccccc2)CCC2(CC1)OOC1(O2)C2CC3CC(C2)CC1C3 (centres unmarked) [OZ274]	5.7 ng/mL (≈ 15.9 nM)
O=C(C[C@H]1CC[C@]2(CC1)OO[C@]1(O2)C2CC3CC(C2)CC1C3)NCCN1CCOCC1 [OZ313]	0.76 ng/mL (≈ 1.75 nM)
CC(=O)OC[C@H]1CC[C@]2(CC1)OOC1(O2)C2CC3CC(C2)CC1C3 (some centres unmarked) [OZ118]	0.24 ng/mL (≈ 0.713 nM)
CS(=O)(=O)NC[C@H]1CC[C@]2(CC1)OOC1(O2)C2CC3CC(C2)CC1C3 (some centres unmarked) [OZ257]	21 ng/mL (≈ 56.5 nM)

system: ANKA strain of P. berghei; experiment: single dose STI in vivo screen in infected mice; set-up: species or system Plasmodium berghei; details: percent reduction in parasitemia day 3 post-infection; single 3 mg/kg po in SSV
Outline: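 Groups of 3-5 Moro SPF or NMRI mice infected with the ANKA strain of P. berghei received a single dose of trioxolane on day one post-infection. The compound was given in 3% ethanol and 7% Tween 80 or in SSV (0.5% w/v CMC, 0.5% v/v benzyl alcohol, 0.4% v/v Tween 80, 0.9% w/v sodium chloride in water). Antimalarial activity was scored as percent reduction in parasitemia on day three and as survival time versus untreated controls. Survival to day 30 counted as cure.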

Compound	Activity (%) 3 mg/kg SSV po
O=C(C[C@H]1CC[C@]2(CC1)OO[C@]1(O2)C2CC3CC(C2)CC1C3)NCCN1CCOCC1 [OZ313]	58%

same assay, conditions: percent reduction in parasitemia day 3 post-infection; single 10 mg/kg po in 3% ethanol and 7% Tween 80; mice

Compound	Activity (%) po
O=S(=O)(c1ccc(F)cc1)N1CCC2(CC1)OOC1(O2)C2CC3CC(C2)CC1C3 (centres unmarked) [OZ86]	77%
O=C(OCCn1ccnc1)C1CCC2(CC1)OOC1(O2)C2CC3CC(C2)CC1C3 (centres unmarked) [OZ182]	91%
CC(=O)OC[C@H]1CC[C@]2(CC1)OOC1(O2)C2CC3CC(C2)CC1C3 (some centres unmarked) [OZ118]	99.0%
CS(=O)(=O)NC[C@H]1CC[C@]2(CC1)OOC1(O2)C2CC3CC(C2)CC1C3 (some centres unmarked) [OZ257]	99.00%

same assay, conditions: percent reduction in parasitemia day 3 post-infection; single 10 mg/kg po in SSV

Compound	Activity (%) 10 mg/kg SSV po
FC1(c2ccccc2)CCC2(CC1)OOC1(O2)C2CC3CC(C2)CC1C3 (centres unmarked) [OZ274]	11/ND %
O=C(C[C@H]1CC[C@]2(CC1)OO[C@]1(O2)C2CC3CC(C2)CC1C3)NCCN1CCOCC1 [OZ313]	98.9%

same assay, conditions: percent reduction in parasitemia day 3 post-infection; single 10 mg/kg sc in 3% ethanol and 7% Tween 80; mice

Compound	Activity (%) sc
O=S(=O)(c1ccc(F)cc1)N1CCC2(CC1)OOC1(O2)C2CC3CC(C2)CC1C3 (centres unmarked) [OZ86]	99.9%
O=C(OCCn1ccnc1)C1CCC2(CC1)OOC1(O2)C2CC3CC(C2)CC1C3 (centres unmarked) [OZ182]	95%
CC(=O)OC[C@H]1CC[C@]2(CC1)OOC1(O2)C2CC3CC(C2)CC1C3 (some centres unmarked) [OZ118]	99.57%
CS(=O)(=O)NC[C@H]1CC[C@]2(CC1)OOC1(O2)C2CC3CC(C2)CC1C3 (some centres unmarked) [OZ257]	99.84%

same assay, conditions: percent reduction in parasitemia day 3 post-infection; single po dose in standard suspending vehicle (SSV); mice

Compound	Activity (%) SSVpo
O=C(OCCn1ccnc1)C1CCC2(CC1)OOC1(O2)C2CC3CC(C2)CC1C3 (centres unmarked) [OZ182]	96%
CC(=O)OC[C@H]1CC[C@]2(CC1)OOC1(O2)C2CC3CC(C2)CC1C3 (some centres unmarked) [OZ118]	98%
CS(=O)(=O)NC[C@H]1CC[C@]2(CC1)OOC1(O2)C2CC3CC(C2)CC1C3 (some centres unmarked) [OZ257]	99.49%

same assay, conditions: single 10 mg/kg po in 3% ethanol and 7% Tween 80; untreated control 5.6 ± 0.3

Compound	Survival (days) po
O=S(=O)(c1ccc(F)cc1)N1CCC2(CC1)OOC1(O2)C2CC3CC(C2)CC1C3 (centres unmarked) [OZ86]	6.7 days
O=C(OCCn1ccnc1)C1CCC2(CC1)OOC1(O2)C2CC3CC(C2)CC1C3 (centres unmarked) [OZ182]	8.0 days
CC(=O)OC[C@H]1CC[C@]2(CC1)OOC1(O2)C2CC3CC(C2)CC1C3 (some centres unmarked) [OZ118]	7.0 days
CS(=O)(=O)NC[C@H]1CC[C@]2(CC1)OOC1(O2)C2CC3CC(C2)CC1C3 (some centres unmarked) [OZ257]	8.3 days

same assay, conditions: single 10 mg/kg po in SSV

Compound	Survival (days) 10 mg/kg SSV po
FC1(c2ccccc2)CCC2(CC1)OOC1(O2)C2CC3CC(C2)CC1C3 (centres unmarked) [OZ274]	7.0/ND days

same assay, conditions: single 10 mg/kg sc in 3% ethanol and 7% Tween 80; untreated control 5.6 ± 0.3

Compound	Survival (days) sc
O=S(=O)(c1ccc(F)cc1)N1CCC2(CC1)OOC1(O2)C2CC3CC(C2)CC1C3 (centres unmarked) [OZ86]	11.3 days
O=C(OCCn1ccnc1)C1CCC2(CC1)OOC1(O2)C2CC3CC(C2)CC1C3 (centres unmarked) [OZ182]	7.7 days
CC(=O)OC[C@H]1CC[C@]2(CC1)OOC1(O2)C2CC3CC(C2)CC1C3 (some centres unmarked) [OZ118]	8.3 days
CS(=O)(=O)NC[C@H]1CC[C@]2(CC1)OOC1(O2)C2CC3CC(C2)CC1C3 (some centres unmarked) [OZ257]	9.7 days

same assay, conditions: single po dose in SSV; untreated control 5.6 ± 0.3

Compound	Survival (days) SSVpo
O=C(OCCn1ccnc1)C1CCC2(CC1)OOC1(O2)C2CC3CC(C2)CC1C3 (centres unmarked) [OZ182]	7.3 days
CC(=O)OC[C@H]1CC[C@]2(CC1)OOC1(O2)C2CC3CC(C2)CC1C3 (some centres unmarked) [OZ118]	8.0 days
CS(=O)(=O)NC[C@H]1CC[C@]2(CC1)OOC1(O2)C2CC3CC(C2)CC1C3 (some centres unmarked) [OZ257]	7.7 days
